Test [1] has as its target T1, Recombinant TDO (Homo sapiens, UniProt P48775).
T1 construct: Recombinant TDO (Seegers, N., et al.) and all other assay components were diluted in TDO reaction buffer
The experiment in a line: Biochemical assay for TDO (NFK GreenScreen). The conditions noted are these: 50 nM TDO, 200 μM L-tryptophan. The procedure, abridged: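 Recombinant human TDO (50 nM) preincubated with compound 60 min at room temperature in 100 mM NaH2PO4 pH 7.0, 0.02% Tween-20, with ascorbic acid. Reaction then run 15 min with 200 μM L-tryptophan (final), 0.3% DMSO. NFK product detected by NFK Green fluorescence after 3 h at 37° C; IC50 derived.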

The target in test [2] is CYP2D6 (Homo sapiens, UniProt P10635). As to the kind of experiment: P450-Glo CYP2D6 Luc-IP assay.
For test [3], the target named is CYP3A4 (Homo sapiens, UniProt P08684). The experiment in a line: P450-Glo CYP3A4 luciferin isopropylacetal (Luc-IP) assay.
From the text: To determine the inhibitory potency of compounds on CYP3A4 enzyme, the P450-Glo CYP3A4 luciferin isopropylacetal (Luc-IP) assay was used (Promega, Madison, Wis., USA, Cat. No. V9920). The assay makes use of a luminogenic isopropylacetal (IPA) substrate that is a derivative from beetle luciferin, a substrate of luciferase enzymes. The IPA substrate is converted by CYP3A4 to luciferin, which in turn reacts with luciferase to produce an amount of light that is directly proportional to the activity of CYP3A4. Compounds were serially diluted in DMSO and finally in 400 mM K2HPO4, pH 7.4. 5 μl of compound solution and 5 μl of CYP3A4/substrate solution were combined in the well of a white 384-well Optiplate (Perkin Elmer). The DMSO concentration in the assay was 0.1%. After incubation for 10 minutes at room temperature in the dark, 10 μl of NADPH regeneration system was added and incubation was continued for 10 min. Then, 20 μl of Luciferin Detection Reagent was added to stop the reaction, and incubation was continued for another 20 min. Luminescence was measured on an Envision multimode reader and IC50 values were calculated using XLfit™. […] Instead of in a 96-well plate, the assay was performed in 384-well white Perkin Elmer Optiplate (cat. no. 6007290).
The target of test [4] is T2, TDO in SW48 colorectal carcinoma cells (Homo sapiens, UniProt P48775).
T2 construct: Endogenous expression of TDO has been determined in a variety of cancer cell lines; host or cells: SW48 colorectal carcinoma cells
The experiment in a line: Cell-based assay for TDO in SW48 colorectal carcinoma cells (NFK GreenScreen). The conditions noted are these: 18 hours with L-tryptophan, read-out: IC50 on TDO in cells.

Structures are written as SMILES. “And” between values parts separate entries of the source, which are not always exact repeats. Equal values may be shown once. A value given as a limit tells only on which side of the number the result lay.

Sequence of CYP3A4 (P08684 whole entry): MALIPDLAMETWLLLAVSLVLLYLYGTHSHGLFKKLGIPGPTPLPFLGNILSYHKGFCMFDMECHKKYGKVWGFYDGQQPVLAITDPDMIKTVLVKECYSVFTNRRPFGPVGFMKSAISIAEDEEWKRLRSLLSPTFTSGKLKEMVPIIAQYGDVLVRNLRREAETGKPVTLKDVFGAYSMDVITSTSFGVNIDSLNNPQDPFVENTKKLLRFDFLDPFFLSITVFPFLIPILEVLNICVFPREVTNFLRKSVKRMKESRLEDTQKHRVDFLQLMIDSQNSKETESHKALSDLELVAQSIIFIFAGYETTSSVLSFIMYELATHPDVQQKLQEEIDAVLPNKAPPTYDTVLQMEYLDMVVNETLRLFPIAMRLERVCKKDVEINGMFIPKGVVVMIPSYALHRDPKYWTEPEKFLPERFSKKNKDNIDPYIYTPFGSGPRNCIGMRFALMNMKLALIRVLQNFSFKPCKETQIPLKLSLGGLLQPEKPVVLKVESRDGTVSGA
Sequence of CYP2D6 (P10635 whole entry): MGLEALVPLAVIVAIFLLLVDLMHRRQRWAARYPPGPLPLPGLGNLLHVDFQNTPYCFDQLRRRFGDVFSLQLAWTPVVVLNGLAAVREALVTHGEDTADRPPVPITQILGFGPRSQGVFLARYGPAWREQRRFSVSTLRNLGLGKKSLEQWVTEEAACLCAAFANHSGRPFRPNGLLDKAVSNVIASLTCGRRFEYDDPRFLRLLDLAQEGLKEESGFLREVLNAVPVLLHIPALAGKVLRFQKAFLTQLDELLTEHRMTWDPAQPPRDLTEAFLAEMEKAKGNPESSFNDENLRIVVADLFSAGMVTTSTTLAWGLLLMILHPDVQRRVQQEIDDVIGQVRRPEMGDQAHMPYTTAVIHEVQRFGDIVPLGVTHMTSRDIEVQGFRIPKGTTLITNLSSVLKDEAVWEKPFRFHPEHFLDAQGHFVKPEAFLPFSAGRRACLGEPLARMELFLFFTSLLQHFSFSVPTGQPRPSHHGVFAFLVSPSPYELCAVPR
T2 sequence (P48775 whole entry): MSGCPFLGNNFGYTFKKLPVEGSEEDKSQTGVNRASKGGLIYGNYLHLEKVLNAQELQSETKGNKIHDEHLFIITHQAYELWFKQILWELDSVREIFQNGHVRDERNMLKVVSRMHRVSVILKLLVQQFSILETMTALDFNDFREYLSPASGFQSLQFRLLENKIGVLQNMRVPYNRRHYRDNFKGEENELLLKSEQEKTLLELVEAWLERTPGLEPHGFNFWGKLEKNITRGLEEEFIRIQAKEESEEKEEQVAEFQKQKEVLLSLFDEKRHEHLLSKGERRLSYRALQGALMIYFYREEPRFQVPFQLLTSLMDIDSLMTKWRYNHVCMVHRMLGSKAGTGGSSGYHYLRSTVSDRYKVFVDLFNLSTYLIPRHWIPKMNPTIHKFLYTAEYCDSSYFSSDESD
T1 sequence (P48775 whole entry): as above

One may read the IC50 as the concentration at which inhibition is half-maximal. Consider `CC(CN(C)C)NC(=O)c1ccc(-c2c[nH]c3cc(F)ccc23)cc1Cl` (centres unmarked) [Example 82, 2-Chloro-N-[2-(dimethylamino)-1-methyl-ethyl]-4-(6-fluoro-1H-indol-3-yl)benzamide], for which the IC50 in test [1] was under 1000 nM; in test [2], over 10000 nM; in test [3] it was 5000 to 10000 nM; in test [4], at most 200 nM.

With `O=C(NC1CCCNCC1)c1ccc(-c2c[nH]c3cc(F)ccc23)cc1` (centres unmarked) [Example 83, N-(azepan-4-yl)-4-(6-fluoro-1H-indol-3-yl)benzamide], the IC50 is under 1000 nM in test [1], over 10000 nM in test [2], over 10000 nM in test [3] and at most 200 nM in test [4].

Take `O=C(NC[C@@H]1CCCN1)c1ccc(-c2c[nH]c3cc(F)ccc23)cc1` [Example 84, 4-(6-Fluoro-1H-indol-3-yl)-N-[[(2S)-pyrrolidin-2-yl]methyl]benzamide]: the IC50 in test [1] is under 1000 nM; in test [2], over 10000 nM; in test [3] it was over 10000 nM; in test [4], at most 200 nM.

Turning to `O=C(N[C@H]1CCC[C@@H]1O)c1ccc(-c2c[nH]c3cc(F)ccc23)cc1` [Example 87, 4-(6-Fluoro-1H-indol-3-yl)-N-[(1S,2S)-2-hydroxycyclopentyl]benzamide], the IC50 is under 1000 nM in test [1]; over 10000 nM in test [2]; over 10000 nM in test [3]; ≤ 500 nM and 200 to 500 nM in test [4].

As to `O=C(NN1CCOCC1)c1ccc(-c2c[nH]c3cc(F)ccc23)cc1` [Example 93, 4-(6-Fluoro-1H-indol-3-yl)-N-morpholino-benzamide], the IC50 is under 1000 nM in test [1]; over 10000 nM in test [2]; over 10000 nM in test [3]; ≤ 500 nM and 200 to 500 nM in test [4].

Turning to `O=C(NC[C@H]1CCCNC1)c1ccc(-c2c[nH]c3cc(F)ccc23)cc1` [Example 94, 4-(6-Fluoro-1H-indol-3-yl)-N-[[(3S)-3-piperidyl]methyl]benzamide], the IC50 in test [1] is under 1000 nM; in test [2] it was over 10000 nM; in test [3] it was 5000 to 10000 nM; in test [4] it was ≤ 500 nM and 200 to 500 nM.

For `O=C(NC[C@@H]1CCNC1)c1ccc(-c2c[nH]c3cc(F)ccc23)cc1` [Example 95, 4-(6-Fluoro-1H-indol-3-yl)-N-[[(3R)-pyrrolidin-3-yl]methyl]benzamide], the IC50 in test [1] was under 1000 nM; in test [2], over 10000 nM; in test [3], over 10000 nM; in test [4], ≤ 500 nM and 200 to 500 nM.

As for `O=C(Nc1ccc(-c2c[nH]c3cc(F)ccc23)cc1)C1CC12CCNCC2` (centres unmarked) [Example 97, N-[4-(6-Fluoro-1H-indol-3-yl)phenyl]-6-azaspiro[2.5]octane-2-carboxamide], the IC50 is under 1000 nM in test [1]; over 10000 nM in test [2]; over 10000 nM in test [3]; ≤ 500 nM and 200 to 500 nM in test [4].

Turning to `O=C(Nc1ccc(-c2c[nH]c3cc(F)ccc23)cc1)C1[C@H]2COC[C@@H]12` (stereo partly drawn) [Example 100, (1R,5S)—N-[4-(6-fluoro-1H-indol-3-yl)phenyl]-3-oxabicyclo[3.1.0]hexane-6-carboxamide], the IC50 in test [1] is 1000 to 5000 nM; in test [2], over 10000 nM; in test [3], over 10000 nM; in test [4], ≤ 500 nM and 200 to 500 nM.

For `O=C(CC1CNCCO1)Nc1ccc(-c2c[nH]c3cc(F)ccc23)cc1` (centres unmarked) [Example 102, N-[4-(6-fluoro-1H-indol-3-yl)phenyl]-2-morpholin-2-yl-acetamide], the IC50 in test [1] is under 1000 nM; in test [2], over 10000 nM; in test [3], 5000 to 10000 nM; in test [4], ≤ 500 nM and 200 to 500 nM.

As to `N[C@H]1CCC[C@@H](C(=O)Nc2ccc(-c3c[nH]c4cc(F)ccc34)cc2)C1` [Example 103, (1R,3S)-3-amino-N-[4-(6-fluoro-1H-indol-3-yl)phenyl]cyclohexanecarboxamide], the IC50 is under 1000 nM in test [1]; over 10000 nM in test [2]; over 10000 nM in test [3]; ≤ 500 nM and 200 to 500 nM in test [4].

Take `O=C(Nc1ccc(-c2c[nH]c3cc(F)ccc23)cc1)C1C2CNCC21` (centres unmarked) [Example 104, N-[4-(6-fluoro-1H-indol-3-yl)phenyl]-3-azabicyclo[3.1.0]hexane-6-carboxamide]: the IC50 in test [1] was under 1000 nM; in test [2] it was over 10000 nM; in test [3], 5000 to 10000 nM; in test [4] it was ≤ 500 nM and 200 to 500 nM.

On to `N[C@@H]1CCC[C@H](C(=O)Nc2ccc(-c3c[nH]c4cc(F)ccc34)cc2)C1` [Example 105, (1S,3R)-3-amino-N-[4-(6-fluoro-1H-indol-3-yl)phenyl]cyclohexanecarboxamide], for which the IC50 in test [1] is under 1000 nM; in test [2], over 10000 nM; in test [3] it was over 10000 nM; in test [4], ≤ 500 nM and 200 to 500 nM.

In the case of `N[C@H]1CC[C@@H](C(=O)Nc2ccc(-c3c[nH]c4cc(F)ccc34)cc2)C1` [Example 106, (1R,3S)-3-amino-N-[4-(6-fluoro-1H-indol-3-yl)phenyl]cyclopentanecarboxamide], the IC50 in test [1] was under 1000 nM; in test [2], over 10000 nM; in test [3] it was 5000 to 10000 nM; in test [4] it was ≤ 500 nM and 200 to 500 nM.

For the molecule `CN1CCN(CC(=O)Nc2ccc(-c3c[nH]c4cc(F)ccc34)cc2)CC1` [Example 109, N-[4-(6-fluoro-1H-indol-3-yl)phenyl]-2-(4-methylpiperazin-1-yl)acetamide], the IC50 is under 1000 nM in test [1]; over 10000 nM in test [2]; over 10000 nM in test [3]; ≤ 500 nM and 200 to 500 nM in test [4].

Turning to `C[C@H]1CNCC[C@H]1C(=O)Nc1ccc(-c2c[nH]c3cc(F)ccc23)cc1` [Example 110, (3R,4R)—N-[4-(6-fluoro-1H-indol-3-yl)phenyl]-3-methyl-piperidine-4-carboxamide], the concentration for half-maximal inhibition (IC50) in test [1] is under 1000 nM; in test [2], over 10000 nM; in test [3], 5000 to 10000 nM; in test [4], ≤ 500 nM and 200 to 500 nM.

For the molecule `COc1cc(-c2c[nH]c3cc(F)ccc23)ccc1C(=O)N[C@H](C)CO` [Example 111, 4-(6-Fluoro-1H-indol-3-yl)-N-[(1R)-2-hydroxy-1-methyl-ethyl]-2-methoxy-benzamide], the IC50 is 1000 to 5000 nM in test [1]; over 10000 nM in test [2]; over 10000 nM in test [3]; ≤ 500 nM and 200 to 500 nM in test [4].

`NC(=O)CNC(=O)c1ccc(-c2c[nH]c3cc(F)ccc23)cc1` [Example 112, N-(2-amino-2-oxo-ethyl)-4-(6-fluoro-1H-indol-3-yl)benzamide]: the IC50 in test [1] is under 1000 nM; in test [2] it was over 10000 nM; in test [3] it was over 10000 nM; in test [4] it was ≤ 500 nM and 200 to 500 nM.

On to `CC(=O)NCCNC(=O)c1ccc(-c2c[nH]c3cc(F)ccc23)cc1` [Example 113, N-(2-acetamidoethyl)-4-(6-fluoro-1H-indol-3-yl)benzamide], for which the IC50 was 1000 to 5000 nM in test [1]; over 10000 nM in test [2]; over 10000 nM in test [3]; ≤ 500 nM and 200 to 500 nM in test [4].

In the case of `O=C(NCCN1C[C@H](O)[C@@H](O)C1)c1ccc(-c2c[nH]c3cc(F)ccc23)cc1Cl` [Example 115, 2-Chloro-N-[2-[(3S,4S)-3,4-dihydroxypyrrolidin-1-yl]ethyl]-4-(6-fluoro-1H-indol-3-yl)benzamide], the IC50 in test [1] was under 1000 nM; in test [2], over 10000 nM; in test [3], over 10000 nM; in test [4], ≤ 500 nM and 200 to 500 nM.

For the molecule `O=C(NCCN1C[C@@H](O)[C@H](O)C1)c1ccc(-c2c[nH]c3cc(F)ccc23)cc1Cl` [Example 116, 2-Chloro-N-[2-[(3R,4R)-3,4-dihydroxypyrrolidin-1-yl]ethyl]-4-(6-fluoro-1H-indol-3-yl)benzamide], the IC50 in test [1] is under 1000 nM; in test [2], over 10000 nM; in test [3], over 10000 nM; in test [4], ≤ 500 nM and 200 to 500 nM.

As to `C[C@H](CO)NC(=O)c1ccc(-c2c[nH]c3cc(F)ccc23)c(F)c1` [Example 117, 3-Fluoro-4-(6-fluoro-1H-indol-3-yl)-N-[(1R)-2-hydroxy-1-methyl-ethyl]benzamide], the IC50 in test [1] was under 1000 nM; in test [2] it was 5000 to 10000 nM; in test [3] it was 5000 to 10000 nM; in test [4], ≤ 500 nM and 200 to 500 nM.

With `O=C(NC1CCCNC1)c1ccc(-c2c[nH]c3cc(F)ccc23)cc1` (centres unmarked) [Example 118, 4-(6-Fluoro-1H-indol-3-yl)-N-(3-piperidyl)benzamide], the IC50 in test [1] was under 1000 nM; in test [2], over 10000 nM; in test [3], over 10000 nM; in test [4], at most 200 nM.

In the case of `CC(=O)N1CCCC(NC(=O)c2ccc(-c3c[nH]c4cc(F)ccc34)cc2)C1` (centres unmarked) [Example 119, N-(1-acetyl-3-piperidyl)-4-(6-fluoro-1H-indol-3-yl)benzamide], the IC50 in test [1] is 1000 to 5000 nM; in test [2], over 10000 nM; in test [3], 5000 to 10000 nM; in test [4] it was ≤ 500 nM and 200 to 500 nM.

With `COC(=O)C(NC(=O)c1ccc(-c2c[nH]c3cc(F)ccc23)cc1)C1CCNCC1` (centres unmarked) [Example 122, Methyl 2-[[4-(6-fluoro-1H-indol-3-yl)benzoyl]amino]-2-(4-piperidyl)acetate], the IC50 in test [1] is under 1000 nM; in test [2], over 10000 nM; in test [3], 5000 to 10000 nM; in test [4], ≤ 500 nM and 200 to 500 nM.

With `C[C@@H](CO)NC(=O)c1ccc(-c2c[nH]c3cc(F)ccc23)cc1F` [Example 123, 2-Fluoro-4-(6-fluoro-1H-indol-3-yl)-N-[(1S)-2-hydroxy-1-methyl-ethyl]benzamide], the IC50 in test [1] was under 1000 nM; in test [2], over 10000 nM; in test [3] it was 5000 to 10000 nM; in test [4], at most 200 nM.
